Measured values as given in US10618930B2, “Compounds for the treatment of cancer” (Eisai R&D Management Co., Ltd., priority 2017, dated 2020).
Read-outs that look alike come from different tables or passages of the source. Each block holds one compound with its values, some of them ahead of it.

Tests used:
Human STING = Human STING (Homo sapiens, UniProt Q86WV6); assay: Human STING reporter assay, Tables 6-8 (variant named only in a drawing); conditions: read-out: Human STING EC50 (μM)
REF Human STING = REF Human STING (Homo sapiens, UniProt Q86WV6); assay: STING variant specific reporter assay, REF-STING (THP1-Dual KO-STING cells); conditions: read-out: Human STING EC50 (μM) REF; Table 5; ammonium salt form of each compound
[1] = tested on: hepatocytes of Beagle dog; assay: Hepatocyte incubation, metabolite identification (dog); type: in vitro ADME; conditions: 10 μmol/L
Method: (§1) Prior to incubations, the cryopreserved hepatocytes were thawed in a water bath at 37° C. One tube of cryopreserved hepatocytes was added to each 50-mL conical tube of cryopreserved hepatocyte recovery medium (UCRM) obtained from In Vitro ADMET Laboratories (Columbia, Md.). The cells were spun in a Beckman centrifuge (Brea, Calif.) with a GH 3.8 rotor at 740 rpm for 10 minutes at […]. The supernatant was removed and the cells were re-suspended in plating media for counting. After the cells were re-suspended in plating media, 20 μL of the re-suspension was transferred and mixed with 20 μL of AOPI staining solution. The solution was gently mixed and cells were counted using a Cellometer (Nexcelom, Lawrence, Mass.). After counting, the cells were then re-suspended at 1 or 2 million viable cells/mL in Williams' E media containing 2 mmol/L L-glutamine (pH 7.4).
(§2) The hepatocyte suspension (50 μL/well) was added into a 48-well plate. […]
(§3) The LC-MS/MS system was composed of a Shimadzu HPLC and an AB-SCIEX TripleTOF 5600 hybrid quadrupole and TOF mass spectrometer (Framingham, Mass.). […] The samples obtained from incubations with hepatocytes were analyzed under both negative and positive scan modes. […]

hepatocytes of human = assay: Hepatocyte incubation, metabolite identification (human); type: in vitro ADME; conditions: 10 μmol/L
Method: as §1, §2, §3

[2] = tested on: primary human PBMC IFNβ protein production; assay: Ex vivo human PBMC stimulation assay, IFNβ protein; type: cell-based; conditions: average of five donors
Method: After 24 hours of incubation the tubes were centrifuged at 1400 rpm for 5 minutes and supernatants were harvested. Supernatant were stored in −80° C. for subsequent IFNβ measurement. IFNβ measurement was done using Human IFN-β Base Kit (Meso Scale Diagnostics cat # K151ADA) and protocol provided by manufacturer was used. IFN-beta estimation was done by reading assay plate at MESO SECTOR Imager 2400 and using MSD Discovery Workbench 4.0 program. After 24 hours IFNβ protein was analyzed.
Results shown in Table 10 reflect an average of measurements conducted using five different donors.

CT26 tumors = assay: CT26 dual tumor model (mouse colon cancer model)
Method: For study B, treatment was started 8 days (0.6 mg/kg, and 10 mg/kg) after the tumor implantation, when the average tumors reached approximately 120 mm^3.
All the mice in the study have two subcutaneous CT26 tumors. The “treated tumor” indicates the tumor with compound direct administration, while “untreated tumor” indicates the tumor without direct compound administration. Tumor volume was followed throughout the experiment. Tumor volume is measured two times weekly after the start of treatment. Tumor burden is calculated from caliper measurements by the formula for the volume of a prolate ellipsoid (L×W^2)/2 where L and W are the respective orthogonal length and width measurements (mm).

[3] = tested on: hepatocytes of Sprague Dawley rat; assay: Hepatocyte incubation, metabolite identification (rat); type: in vitro ADME; conditions: 10 μmol/L
Method: as §1, §2, §3

[4] = tested on: hepatocytes of Cynomolgus monkey; assay: Hepatocyte incubation, metabolite identification (monkey); type: in vitro ADME; conditions: 10 μmol/L
Method: as §1, §2, §3

[5] = tested on: hepatocytes of CD-1 mouse; assay: Hepatocyte incubation, metabolite identification (mouse); type: in vitro ADME; conditions: 10 μmol/L
Method: as §1, §2, §3

[6] = Table 6, head only in drawing 188, ammonium salt form except Compounds 26, 33, 34 (bis-TEA salts)

Human STING, sequence (Q86WV6 whole entry): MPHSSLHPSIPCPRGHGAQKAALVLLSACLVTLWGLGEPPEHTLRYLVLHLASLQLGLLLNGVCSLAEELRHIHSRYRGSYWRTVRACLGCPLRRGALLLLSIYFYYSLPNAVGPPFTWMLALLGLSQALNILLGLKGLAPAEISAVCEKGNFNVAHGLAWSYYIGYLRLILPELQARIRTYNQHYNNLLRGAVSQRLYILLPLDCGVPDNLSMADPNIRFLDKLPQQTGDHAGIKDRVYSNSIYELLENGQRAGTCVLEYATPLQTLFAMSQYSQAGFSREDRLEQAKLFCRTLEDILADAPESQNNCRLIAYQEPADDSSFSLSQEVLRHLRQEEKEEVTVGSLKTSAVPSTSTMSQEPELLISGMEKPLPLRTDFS
REF Human STING, sequence (Q86WV6 whole entry): as above

SMILES: C=CCN(C(=O)c1ccccc1)c1ncnc2c1ncn2[C@@H]1O[C@@H]2COP(=S)(OCCC#N)O[C@H]3[C@@H](F)[C@H](n4cnc5c(N(CC=C)C(=O)c6ccccc6)ncnc54)O[C@@H]3COP(=O)(S)O[C@H]2[C@H]1F (stereo partly drawn)
- ring closure, yield of all isomers (from C=CCN(C(=O)c1ccccc1)c1ncnc2c1ncn2[C@@H]1O[C@H](COP(=S)(OCCC#N)O[C@H]2[C@@H](F)[C@H](n3cnc4c(N(CC=C)C(=O)c5ccccc5)ncnc43)O[C@@H]2CO)[C@@H](O[PH](=O)O)[C@H]1F, other bond, 2 steps): 100%

SMILES: CC(C)(C)[Si](C)(C)O[C@@H]1[C@@H]2N[P@@](=S)(OCCC#N)OC[C@H]3O[C@@H]4[C@H](O[Si](C)(C)C(C)(C)C)[C@@H]3N[P@](=S)(OCCC#N)OC[C@H]2O[C@H]1n1cnc2c(ncnc21)N(C(=O)c1ccccc1)CC=CCN(C(=O)c1ccccc1)c1ncnc2c1ncn24
- ring closure, yield of all isomers (from C=CCN(C(=O)c1ccccc1)c1ncnc2c1ncn2[C@@H]1O[C@@H]2CO[P@@](=S)(OCCC#N)N[C@H]3[C@@H](O[Si](C)(C)C(C)(C)C)[C@H](n4cnc5c(N(CC=C)C(=O)c6ccccc6)ncnc54)O[C@@H]3CO[P@](=S)(OCCC#N)N[C@H]2[C@H]1O[Si](C)(C)C(C)(C)C, rcm bond): 24.5%

SMILES: CC(C)(C)[Si](C)(C)O[C@H]1[C@H]2O[P@@](=O)(SCc3ccccc3[N+](=O)[O-])OC[C@H]3O[C@@H]4[C@H](F)[C@@H]3O[P@](=O)(SCc3ccccc3[N+](=O)[O-])OC[C@H]1O[C@H]2n1cnc2c(ncnc21)N(C(=O)c1ccccc1)CC=CCN(C(=O)c1ccccc1)c1ncnc2c1ncn24
- ring closure, yield of all isomers (from C=CCN(C(=O)c1ccccc1)c1ncnc2c1ncn2[C@@H]1O[C@@H]2CO[P@](=O)(SCc3ccccc3[N+](=O)[O-])O[C@@H]3[C@H](O[Si](C)(C)C(C)(C)C)[C@@H](CO[P@@](=O)(SCc4ccccc4[N+](=O)[O-])O[C@H]2[C@H]1F)O[C@H]3n1cnc2c(N(CC=C)C(=O)c3ccccc3)ncnc21, rcm bond): 6.1%

SMILES: O=C(c1ccccc1)N1CC=CCN(C(=O)c2ccccc2)c2ncnc3c2ncn3[C@@H]2O[C@@H]3CO[P@](=O)(SCc4ccccc4[N+](=O)[O-])O[C@H]4[C@@H](F)[C@@H](O[C@@H]4CO[P@@](=O)(SCc4ccccc4[N+](=O)[O-])O[C@H]3[C@H]2F)n2cnc3c1ncnc32
- ring closure, yield of all isomers (from C=CCN(C(=O)c1ccccc1)c1ncnc2c1ncn2[C@@H]1O[C@@H]2CO[P@@](=O)(SCc3ccccc3[N+](=O)[O-])O[C@H]3[C@@H](F)[C@H](n4cnc5c(N(CC=C)C(=O)c6ccccc6)ncnc54)O[C@@H]3CO[P@](=O)(SCc3ccccc3[N+](=O)[O-])O[C@H]2[C@H]1F, rcm bond): 39%

SMILES: O=C(c1ccccc1)N1CC=CCOc2ncnc3c2ncn3[C@@H]2O[C@@H]3COP(=O)(SCc4ccccc4[N+](=O)[O-])O[C@H]4[C@@H](F)[C@@H](O[C@@H]4COP(=O)(SCc4ccccc4[N+](=O)[O-])O[C@H]3[C@H]2F)n2cnc3c1ncnc32 (stereo partly drawn)
- ring closure, yield of all isomers (from C=CCOc1ncnc2c1ncn2[C@@H]1O[C@@H]2COP(=O)(SCc3ccccc3[N+](=O)[O-])O[C@H]3[C@@H](F)[C@H](n4cnc5c(N(CC=C)C(=O)c6ccccc6)ncnc54)O[C@@H]3COP(=O)(SCc3ccccc3[N+](=O)[O-])O[C@H]2[C@H]1F, rcm bond): 25.6%

SMILES: O=[N+]([O-])c1ccccc1CSP1(=O)OC[C@H]2O[C@H]([C@H](F)[C@@H]2O)n2cnc3c(ncnc32)CCC=CCCc2ncnc3c2ncn3[C@@H]2O[C@H](CO)[C@@H](O1)[C@H]2F (stereo partly drawn)
- ring closure, yield of all isomers (from C=CCCc1ncnc2c1ncn2[C@@H]1O[C@H](COP(=O)(O[C@H]2[C@@H](F)[C@H](n3cnc4c(CCC=C)ncnc43)O[C@@H]2COC(c2ccccc2)(c2ccc(OC)cc2)c2ccc(OC)cc2)SCc2ccccc2[N+](=O)[O-])[C@@H](O)[C@H]1F, rcm bond, 2 steps): 26.2%

SMILES: O=[N+]([O-])c1ccccc1CS[P@]1(=O)OC[C@H]2O[C@@H]3[C@H](F)[C@@H]2O[P@](=O)(SCc2ccccc2[N+](=O)[O-])OC[C@H]2O[C@H]([C@H](F)[C@@H]2O1)n1cnc2c(ncnc21)OCC=CCOc1ncnc2c1ncn23
- ring closure, yield of all isomers (from C=CCOc1ncnc2c1ncn2[C@@H]1O[C@@H]2CO[P@@](=O)(SCc3ccccc3[N+](=O)[O-])O[C@H]3[C@@H](F)[C@H](n4cnc5c(OCC=C)ncnc54)O[C@@H]3CO[P@@](=O)(SCc3ccccc3[N+](=O)[O-])O[C@H]2[C@H]1F, rcm bond): 3.6%

SMILES: O=[P@]1(S)OC[C@H]2OC3[C@H](F)[C@@H]2O[P@](=O)(S)OC[C@H]2O[C@H]([C@H](F)[C@@H]2O1)n1cnc2c(ncnc21)NCC1NC1CNc1ncnc2c1ncn23 (single isomer, unassigned) [Compound 35]
- EC50 (Human STING; [6]): 67.2 µM

SMILES: O=[P@]1(S)OC[C@H]2OC3[C@H](F)[C@@H]2O[P@](=O)(S)OC[C@H]2O[C@H]([C@H](F)[C@@H]2O1)n1cnc2c(ncnc21)NCC1NC1CNc1ncnc2c1ncn23 (single isomer, unassigned) [Compound 36]
- EC50 (Human STING; [6]): 94.1 µM

- EC50 (REF Human STING): > 100 µM
SMILES: O=P1(S)OC[C@H]2O[C@@H]3[C@H](F)[C@@H]2OP(=O)(S)OC[C@H]2OC([C@H](F)[C@@H]2O1)n1cnc2c(ncnc21)NCC/C=C/CNc1ncnc2c1ncn23 (single isomer, unassigned) [Compound 37]

- metabolites identified (LC-MS/MS) ([1]; dog hepatocytes): No apparent metabolite
- stability in incubations with hepatocytes ([1]; dog, up to 240 minutes): stable
- metabolites identified (LC-MS/MS) (hepatocytes of human; human hepatocytes): No apparent metabolite
- stability in incubations with hepatocytes (hepatocytes of human; human, up to 240 minutes): stable
- metabolites identified (LC-MS/MS) ([3]; rat hepatocytes): No apparent metabolite
- stability in incubations with hepatocytes ([3]; rat, up to 240 minutes): stable
- metabolites identified (LC-MS/MS) ([4]; monkey hepatocytes): No apparent metabolite
- stability in incubations with hepatocytes ([4]; monkey, up to 240 minutes): stable
- metabolites identified (LC-MS/MS) ([5]; mouse hepatocytes): No apparent metabolite
- stability in incubations with hepatocytes ([5]; mouse, up to 240 minutes): stable
SMILES: O=[P@]1(S)OC[C@H]2O[C@@H]3[C@H](F)[C@@H]2O[P@](=O)(S)OC[C@H]2O[C@H]([C@H](F)[C@@H]2O1)n1cnc2c(ncnc21)NC/C=C/CNc1ncnc2c1ncn23 [Compound 1a]
- IFNβ ([2]; 0.1 μM, 24 hours): 21.3 ± 17.8 pg/mL
- IFNβ ([2]; 10 μM, 24 hours): 540.2 ± 215.0 pg/mL
- IFNβ [2]: 227.5 ± 62.4 pg/mL
- cure rate, treated tumors (CT26 tumors; 0.6 mg/kg, intratumoral single dose (study B)): 20%
- animals cured of treated tumor at the end of study (CT26 tumors; 10 mg/kg, intratumoral single dose (study B)): 100%
- curative effects, untreated tumors (CT26 tumors; 10 mg/kg, intratumoral single dose into the other tumor): 80%

- EC50 (Human STING; [6]): 7.4 µM
SMILES: O=[P@@]1(S)OC[C@H]2O[C@@H]3[C@H](F)[C@@H]2O[P@](=O)(S)OC[C@H]2OC([C@H](F)[C@@H]2O1)n1cnc2c(ncnc21)OC/C=C/COc1ncnc2c1ncn23 [Compound 26]

SMILES: O=P1(O)OC[C@H]2OC3[C@H](F)[C@@H]2O[P@@](O)(=S)OC[C@H]2O[C@H]([C@H](F)[C@@H]2O1)n1cnc2c(ncnc21)NC/C=C/CNc1ncnc2c1ncn23 [Compound 27]
- EC50 (Human STING): 27.6 µM

SMILES: O=P1(O)OC[C@H]2OC3[C@H](F)[C@@H]2O[P@](O)(=S)OC[C@H]2O[C@H]([C@H](F)[C@@H]2O1)n1cnc2c(ncnc21)NC/C=C/CNc1ncnc2c1ncn23 [Compound 28]
- EC50 (Human STING): 18.4 µM

- EC50 (Human STING; [6]): 8.4 µM
SMILES: O=[P@]1(S)OC[C@H]2OC3[C@H](F)[C@@H]2O[P@](=O)(S)OC[C@H]2O[C@H]([C@H](F)[C@@H]2O1)n1cnc2c(ncnc21)NCC#CCNc1ncnc2c1ncn23 [Compound 29]
